Assay results: article PMC8780658 (Pharmaceutics, 2021)
Where a SMILES comes first, the peptide text is derived from it. The star is where a group is joined. Doxorubicin(3'-N) = COc1cccc2c1C(=O)c1c(O)c3c(c(O)c1C2=O)C[C@@](O)(C(=O)CO)C[C@@H]3O[C@H]1C[C@H](N*)[C@H](O)[C@H](C)O1; Propanoyl(3-maleimido) = O=C1C=CC(=O)N1CCC(=O)*; PEG2 = NCCOCCOCCC(=O)O

Key:
[1] = Pharmacokinetics after intravenous injection; format: in vivo; conditions: BALB/c nude mice, i.v.
Protocol: Mice were bred under pathogen-free conditions at the Korea Institute of Science and Technology (KIST). All experiments with live animals were performed in compliance with the relevant laws and institutional guidelines of Institutional Animal Care and Use Committee (IACUC) in Korea Institute of Science and Technology (KIST), and IACUC approved the experiment (approved number of 2020-123). […] Then, each drug in the blood samples was extracted with DMSO by intense vortex and the samples were centrifuged at 2000 rpm for 40 min to obtain as a blood plasma. Finally, amount of free DOX and Al-ProD in samples was analyzed by IVIS Lumina Series III system (PerkinElmer; Waltham, MA, USA).

[2] = In vivo toxicity evaluation in MDA-MB231 tumor-bearing mice
Protocol: (§1) Antitumor efficacy was assessed by measuring tumor volumes once every two days, calculated as largest diameter × smallest diameter^2 × 0.53, once every 2 days. The body weights of mice were also measured once every two days to assess in vivo toxicity. The in vivo toxicity of Al-ProD was further assessed by histological analyses. At 20 days after treatment, major organs were collected from mice and samples were stained with H&E following the manufacturer’s protocol. Then, organ sections were observed using an optical microscope.

[3] = test system: MDA-MB231 tumor; experiment: Biodistribution in breast tumor models (NIRF imaging)
Protocol: The biodistribution of Al-ProD was assessed in breast tumor models, which were prepared by subcutaneous inoculation of 1 × 10^7 MBA-MB231 cells into the left flank of BALB/c nude mice. […] Then, noninvasive near-infrared fluorescence (NIRF) imaging was performed using an IVIS Lumina Series III system after 0 h, 3 h, 6 h, 12 h, 24 h, 48 h, and 72 h of injection. Fluorescence intensities in tumor regions were quantified via Living Image software. Mice were sacrificed after 12 h of injection for ex vivo imaging, followed by the collection of lung, liver, kidney, spleen, heart, and tumor tissues. Tumor tissues were also cut into 10 µm thick sections for histological assays. Slide-mounted tumor sections were analyzed by Leica TCS SP8 confocal laser-scanning microscope.

[4] = test system: H9C2 cells; experiment: Cellular uptake, confocal fluorescence imaging; format: cell-based, rat; conditions: 2 µM, 48 h, 37 °C, CLSM
Protocol: (§2) To assess intracellular behavior of Al-ProD via fluorescence imaging, 3 × 10^5 MDA-MB231 and H9C2 cells were seeded in confocal dishes. […] As a control, MDA-MB231 cells were pre-incubated for 2 h with cathepsin B-inhibitory siRNA that was pre-incubated with Lipofectamine 2000 for 40 min at room temperature. Then, cells were washed twice with DPBS, fixed with 5% paraformaldehyde for 15 min, and stained with 4′,6-diamidino-2-phenylindole (DAPI) for 10 min. Fluorescence imaging was performed using a Leica TCS SP8 confocal laser-scanning microscope (Leica Microsystems GmbH; Wetzlar, Germany). The DOX fluorescence in images was quantitatively analyzed using an Image Pro software (Media Cybernetic, Rockville, MD, USA).

[5] = target: T1, mouse serum albumin (MSA) (Mus musculus, UniProt P07724); experiment: Albumin binding of Al-ProD, SDS-PAGE band shift; conditions: 100 µM compound, 700 µM albumin in PBS pH 7.4, room temperature, 1 h; native 12% SDS-PAGE, trans-UV; unbound band below 7 kDa
T1 construct: purchased Sigma Aldrich
Protocol: (§3) The albumin-binding property of Al-ProD was firstly evaluated. Briefly, to a human serum albumin (HSA), mouse serum albumin (MSA), or bovine serum albumin (BSA; 700 µM in PBS; pH 7.4), Al-ProD (100 µM) was added and incubated for 0, 5, and 60 min at room temperature. As a control, the HSA solution was pre-incubated with γ-maleimidobutyric acid for 1 h before adding Al-ProD. After incubation, samples were analyzed via native 12% SDS-PAGE gel. The gels were observed by trans-UV using the iBright^TM Imaging System (Invitrogen by Thermo Fisher Scientiric), and then stained with coomassie blue for visualizing proteins. The albumin-binding property of Al-ProD was further analyzed using reverse-phased high performance liquid chromatography (RP-HPLC; […]; Agilent Technologies) with ACN/H2O gradient from 80:20 to 20:80 for 30 min under a fluorescence detector (Ex/Em: 530/590 nm). […] Next, cathepsin B-specific cleavage of Al-ProD that was pre-incubated with HSA for 5 min (HSA-bound Al-ProD; 10 µM) was assessed by incubating with cathepsin B, cathepsin E, cathepsin D, cathepsin L, caspase-9, or caspase-3 (50 µg) at 37 °C for 24 h, followed by an analysis using HPLC with ACN/H2O gradient from 20:80 to 80:20 for 30 min.

[6] = target: T2, bovine serum albumin (BSA) (Bos taurus, UniProt P02769); experiment: Albumin binding of Al-ProD, SDS-PAGE band shift; conditions: 100 µM compound, 700 µM albumin in PBS pH 7.4, room temperature, 1 h; native 12% SDS-PAGE, trans-UV; unbound band below 7 kDa
T2 construct: purchased Sigma Aldrich
Protocol: as §3

[7] = test system: MDA-MB231 tumor; experiment: Antitumor efficacy in MDA-MB231 tumor-bearing mice; format: in vivo, BALB/c nude mice; conditions: 3 mg/kg based on DOX contents, once every three days; saline group 1810.98 ± 544.56 mm^3
Protocol: as §1

[8] = test system: MDA-MB231 cells; experiment: Cellular uptake, confocal fluorescence imaging; format: cell-based, human; conditions: 2 µM, 48 h, 37 °C, CLSM
Protocol: as §2

[9] = 3 mg/kg based on DOX contents, once every three days
[10] = 12 h after i.v. injection, 3 mg/kg based on DOX contents

T2 sequence (P02769 25-607): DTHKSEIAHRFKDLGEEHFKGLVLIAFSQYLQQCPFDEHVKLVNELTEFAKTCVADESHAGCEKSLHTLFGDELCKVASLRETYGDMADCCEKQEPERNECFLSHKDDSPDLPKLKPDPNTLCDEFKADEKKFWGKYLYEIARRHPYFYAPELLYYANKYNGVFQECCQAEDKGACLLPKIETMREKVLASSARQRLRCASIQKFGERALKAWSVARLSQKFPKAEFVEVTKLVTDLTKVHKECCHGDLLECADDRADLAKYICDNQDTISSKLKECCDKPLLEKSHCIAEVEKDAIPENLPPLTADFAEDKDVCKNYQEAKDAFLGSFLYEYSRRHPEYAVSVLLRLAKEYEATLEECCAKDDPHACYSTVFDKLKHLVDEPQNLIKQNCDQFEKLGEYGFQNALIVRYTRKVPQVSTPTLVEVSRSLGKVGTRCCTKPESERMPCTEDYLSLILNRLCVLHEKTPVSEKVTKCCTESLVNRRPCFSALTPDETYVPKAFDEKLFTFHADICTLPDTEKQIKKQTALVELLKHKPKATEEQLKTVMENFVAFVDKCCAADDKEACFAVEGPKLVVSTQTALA
T1 sequence (P07724 25-608): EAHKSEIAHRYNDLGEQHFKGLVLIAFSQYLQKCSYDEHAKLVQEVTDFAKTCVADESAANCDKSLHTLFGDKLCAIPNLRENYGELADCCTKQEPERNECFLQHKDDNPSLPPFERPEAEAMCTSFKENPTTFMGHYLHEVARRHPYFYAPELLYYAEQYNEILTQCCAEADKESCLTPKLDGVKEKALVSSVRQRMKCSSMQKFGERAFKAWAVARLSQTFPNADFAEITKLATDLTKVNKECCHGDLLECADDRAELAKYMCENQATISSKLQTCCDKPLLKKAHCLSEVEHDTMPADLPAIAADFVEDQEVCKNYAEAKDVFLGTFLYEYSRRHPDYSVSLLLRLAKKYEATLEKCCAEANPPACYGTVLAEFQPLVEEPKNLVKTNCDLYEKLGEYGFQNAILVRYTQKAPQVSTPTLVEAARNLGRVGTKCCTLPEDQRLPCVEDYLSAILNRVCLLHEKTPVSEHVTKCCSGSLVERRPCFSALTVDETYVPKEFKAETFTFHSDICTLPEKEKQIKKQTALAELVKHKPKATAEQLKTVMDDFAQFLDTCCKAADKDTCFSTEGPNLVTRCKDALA

| Compound | AUC increase compared with free DOX ([1]; 3 mg/kg based on DOX contents) | Time for which a detectable amount remained in the body ([1]; 3 mg/kg based on DOX contents) [h] | Body weights during treatment [2, 9] | Mice survival during treatment [2, 9] | Normal organs stained with H&E ([2]; day 20 after treatment) | DOX fluorescence from tumor tissues relative to free DOX, NIRF imaging [3, 10] | DOX fluorescence in tumor tissues relative to free DOX group, ex vivo imaging [3, 10] | DOX fluorescence in whole tumor tissue sections (histology) ([3]; 12 h after i.v. injection, 3 mg/kg based on DOX contents, confocal microscopy) | Time for which DOX fluorescence was retained in tumor tissues ([3]; NIRF imaging, i.v., 3 mg/kg based on DOX contents) [h] | Intracellular location of DOX fluorescence in H9C2 cells [4] | In vivo half-life, T1/2 ([1]; 3 mg/kg based on DOX contents, plasma fluorescence by IVIS) [min] | In vivo half-life ([1]; 3 mg/kg, plasma fluorescence by IVIS) [min] | Band in SDS-PAGE gel after incubation with MSA (albumin binding) [5] | Band in SDS-PAGE gel after incubation with BSA (albumin binding) [6] | Median survival ([2]; 3 mg/kg once every three days, saline group 20 days) [days] | Normal organs stained with H&E ([2]; mouse, in vivo) | Course of DOX fluorescence in tumor tissues ([3]; mouse, in vivo, iv, 3 mg/kg) | DOX fluorescence in whole tumor tissue sections (histology) ([3]; mouse, in vivo, iv, 3 mg/kg) | Tumor volume on day 20 after treatment [7] [mm^3] | Intracellular location of DOX fluorescence in MDA-MB231 cells [8] |
| --- | --- | --- | --- | --- | --- | --- | --- | --- | --- | --- | --- | --- | --- | --- | --- | --- | --- | --- | --- | --- |
| COc1cccc2c1C(=O)c1c(O)c3c(c(O)c1C2=O)C[C@@](O)(C(=O)CO)C[C@@H]3O[C@H]1C[C@H](NC(=O)CNC(=O)[C@H](CCCNC(=N)N)NC(=O)[C@H](CCCNC(=N)N)NC(=O)[C@H](Cc2ccccc2)NC(=O)CCOCCOCCNC(=O)CCN2C(=O)C=CC2=O)[C@H](O)[C@H](C)O1 [Al-ProD, maleimide-PEG2-FRRG-DOX] ({Propanoyl(3-maleimido)-PEG2}-FRRG-{Doxorubicin(3'-N)}) | approximately sevenfold | 144 | no significant body weight loss | over 25 days | negligible toxicity | 3.33–4.08 fold | 3.41–4.92 fold | strong DOX fluorescence | 72 |  |  |  |  |  |  |  |  |  |  |  |
| COc1cccc2c1C(=O)c1c(O)c3c(c(O)c1C2=O)C[C@@](O)(C(=O)CO)C[C@@H]3O[C@H]1C[C@H](N)[C@H](O)[C@H](C)O1 [free DOX, doxorubicin] |  |  |  | ≤ 18 days |  |  |  |  |  | clearly observed at the nuclei | 15 | 15 | not bound | not bound | 16 | structural abnormalities | rapidly decreased for 6 h | only a small quantity | 580.25 ± 139.92 | clearly observed at the nuclei |
